# According to article PMC9327782, “Benzoxazole derivatives as new VEGFR-2 inhibitors and apoptosis inducers: design, synthesis, in silico studies, and antiproliferative evaluation” (Journal of Enzyme Inhibition and Medicinal Chemistry, 2022):
# Where two headings read alike, the source gives them in different places.
# Assays:
# Type in all cases: cell-based, human
# [1] = test system: HepG2 cell line; test: In vitro anti-proliferative MTT assay, HepG2; details: Homo sapiens
# Text: The cytotoxicity results were obtained as median growth inhibitory concentration (IC50).
# MTT assay protocol. This method was applied in accordance with the comprehensive description in Supplementary data. […]
# 5 Raw data of cytotoxity and VEGFR -2 assay […]
# Experimental of biological testing
# 1. In vitro anti-proliferative activity
# MTT assay protocol was applied to assess the anti-proliferative activity of the synthesized compounds. Two human cancer cell lines (MCF-7 and HepG-2) and one normal cell line (WI-38) were used in this test. At first, the cell lines were cultured in RPMI -1640 medium with 10% fetal bovine serum. Antibiotics (100 units/ml penicillin and100 µg/ml streptomycin ) were added at 37 °C in a 5% CO2 incubator. The cell lines were seeded in a 96-well plate at a density of 1.0 x 10^4 cells / well at 37 °C for 24 h under 5% CO2. After incubation, the cells were treated with different […]
# concentration of the synthesized compounds and incubated for 24 h. After 24 h of drug treatment, 20 µl of MTT solution at 5mg/ml was added and incubated for 4 h. Dimethyl sulfoxide (DMSO) in volume of 100 µl was added into each well to dissolve the purple formazan formed. The colorimetric assay was measured and recorded at absorbance of 570 nm using a plate reader (EXL 800, USA). The relative cell viability in percentage was calculated as (A570 of treated samples/A570 of untreated sample) X 100. […]
# [2] = test system: BAX; test: Western blot, BAX level in HepG2 cells; details: HepG2, 24 h
# Experimental: Compound 12lwas subjected to further cellular mechanistic study. The cellular levels of BAX and Bcl-2 were measured using the western blot technique after compound 12l was applied to HepG2 cells for 24 h.
# The western blot technique was applied in accordance with the comprehensive description in Supplementary data[38–40] […]
# The proteins expression of cleaved caspase‐3, BAX, and Bcl‐2 were determined using Western blot analysis. In brief, HepG2 cells were treated with control, or with the synthesized compounds.
# Then cells were lysed in 250 μL precold lysis buffer (pH 7.4: Tris‐Base [10 mM], NaCl [100 mM], ethylenediaminetetraacetic acid [EDTA, 25 mM], ethylene glycol bis (2‐aminoethyl) tetraacetic acid [EGTA, 25 mM], 1% [v/v] NP‐40, and 1% [v/v] Triton X‐100) supplemented with 1:350 protease:phosphatase inhibitors cocktail (Sigma). The cells were immediately frozen at −20°C for 1.5 hours for further lysis, collected by cell scraper, sonicated 3 × 10 seconds, and centrifuged (13000 rpm, 15 minutes). Total protein concentrations in the supernatant were determined colorimetrically using the Pierce 660 nm Protein Assay method (Thermo Fisher Scientific, Rockford, IL), with BSA as the standard. Equal amounts of protein (25 μg) samples were mixed with SDS‐loading buffer (pH 6.8: Tris‐HCl [700 mM], dithiothreitol [DTT, 600 mM], sodium dodecyl sulfate [SDS, 12%], glycerol [60%], and bromophenol blue [0.012%]), denatured by boiling at 95°C for 10 minutes, allowed to cool on ice for 15 minutes, vortexed vigorously for 30 seconds and loaded into SDS‐polyacrylamide gel and separated by an electrophoresis unit (Cleaver Scientific Ltd, UK), transferred onto polyvinylidene fluoride membranes (Bio‐Rad) for 35 minutes using a Trans‐Blot SD semi‐dry transfer cell (Bio‐Rad) at 250 mA and 22 V. Membranes were blocked with 5% (w/v) blotting grade dry milk (Bio‐Rad) in Tris‐buffered saline/Tween‐20 (TBS‐ T) (pH 7.5: Tris‐base [20 mM], NaCl [150 mM], and 0.05% [v/v] Tween‐ 20) while shaking for 1.5 hour at RT, and then incubated with the corresponding primary antibody against cleaved caspase‐3 antibody ([…], #9661; Cell Signaling Technology), β‐actin (1:2000, #A5060; Sigma), BAX (Biovision, USA) and Bcl‐2( Bioimaging, system, syngene, UK) for 9‐10 hours at 4°C in a […]
# three separate experiments. […]
# the synthesized compounds towards VEGFR-2. The crystal structure of VEGFR-2 was […]
# 2.03 Å). Sorafenib was used as reference ligand. To prepare the target protein, water molecules […]
# fields. […] The validation […]
# process was performed by redocking the co-crystallized ligand. The designed compounds together […]
# followed by energy minimization then prepared for docking. Docking process was carried through […]
# binding mode with target molecule.
# [3] = test system: Caspase-3; test: Western blot, caspase-3 level in HepG2 cells; details: HepG2, 10.50 µM, 24 h
# Experimental: Caspase-3 has a key role in apoptosis initiation and execution[26]^,[27]. The western blot technique was used to investigate the effect of compound 12 l, the most promising member, on the caspase-3 level. HepG2 cells were treated with 12l (10.50 µM) for 24 h.
# The western blot technique was applied in accordance with the comprehensive description in Supplementary data[38–40]
# 4. Flow cytometry analysis for apoptosis
# Flow cytometry cell apoptosis analysis was used to investigate the apoptotic effect of the synthesized compounds. […] The stained cells were measured using Epics XL-MCL™ Flow Cytometer and analyzed using Flowing software.
# The proteins expression of cleaved caspase‐3, BAX, and Bcl‐2 were determined using Western blot analysis. […]
# Then cells were lysed in 250 μL precold lysis buffer (pH 7.4: Tris‐Base [10 mM], NaCl [100 mM], ethylenediaminetetraacetic acid [EDTA, 25 mM], ethylene glycol bis (2‐aminoethyl) tetraacetic acid [EGTA, 25 mM], 1% [v/v] NP‐40, and 1% [v/v] Triton X‐100) supplemented with 1:350 protease:phosphatase inhibitors cocktail (Sigma). […] Total protein concentrations in the supernatant were determined colorimetrically using the Pierce 660 nm Protein Assay method (Thermo Fisher Scientific, Rockford, IL), with BSA as the standard. […]
compound,measurement,setting,value
"Cc1ccc2oc(SCC(=O)Nc3ccc(C(=O)Nc4cccc(Cl)c4)cc3)nc2c1 [Compound 12l, N-(3-Chlorophenyl)-4–(2-((5-methylbenzo[d]oxazol-2-yl)thio)acetamido)benzamide]",IC50,"[1]; HepG2, 24 h, MTT, 24 h treatment, mean of three experiments, read-out: In vitro IC50 HepG2",10.5 ± 0.8 µM
same,IC50,"[1]; HepG2, supplement raw data, dose-response curve fit, read-out: LogIC50 best-fit value, HepG2 (converted)",10.5 µM
same,Protein expression (normalized to β-actin) BAX,[2]; control = 1.00,3.40 ± 0.15
same,Protein expression (normalized to β-actin) BAX/Bcl-2 ratio,[2]; control = 1.00,6.83 ± 0.96
same,BAX level increase,[2]; versus control,3.40 fold
same,BAX/Bcl-2 ratio increase,[2]; versus control,6.83 fold
same,Protein expression (normalized to β-actin) Caspase-3,[3]; control = 1.00,2.98 ± 0.13
same,Caspase-3 level increase,[3]; versus control,2.98 fold
